Experimental data as given in patent publication US20210238162A1, “CHEMICAL COMPOUNDS” (GlaxoSmithKline Intellectual Property Development Limited, priority 2015, published 2021).
Counter-ions that a name gives are not always drawn. Like-named read-outs stand apart in the source and are kept apart here.

Target: T1, haematopoietic prostaglandin D synthase (H-PGDS) (Homo sapiens, UniProt O60760)
T1 construct: Full length human H-PGDS cDNA (Invitrogen Ultimate ORF IOH13026) was amplified by PCR; made in house; host or cells: E. coli BL21 (DE3*), vector pET22b+
T1 sequence (O60760 whole entry): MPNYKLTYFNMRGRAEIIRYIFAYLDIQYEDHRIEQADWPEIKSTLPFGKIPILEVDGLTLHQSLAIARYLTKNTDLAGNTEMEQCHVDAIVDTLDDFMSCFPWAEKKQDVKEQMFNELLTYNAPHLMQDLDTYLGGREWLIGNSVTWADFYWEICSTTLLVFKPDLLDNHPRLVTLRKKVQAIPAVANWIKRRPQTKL
Assay: H-PGDS RapidFire High Throughput Mass Spectrometry Assay
Format: biochemical
Procedure, shortened: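 PGH2 (~10 μM burst) generated in situ from arachidonic acid by FLAG-tagged human COX-2 (Sf9-expressed), then converted to PGD2 by full-length human His-tagged H-PGDS from E. coli. PGD2 and PGF2α (substrate surrogate) quantified by RapidFire SPE-triple quadrupole MS; percent conversion calculated.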

[1] = H-PGDS RapidFire MS assay, mean pIC50, read-out: Potency Range (mean pIC50) (converted)

| SMILES | IC50 [1] | IC50 (in at least one experimental run, read-out: H-PGDS pIC50 value (converted)) |
| --- | --- | --- |
| O=C(N[C@H]1CC[C@H](OCC2(O)CC2)CC1)c1cnc2cc(OC(F)F)c(Cl)cc2c1 [Example 123, 6-Chloro-7-(difluoromethoxy)-N-(trans-4-((1-hydroxycyclopropyl)methoxy)cyclohexyl)quinoline-3-carboxamide] | < 10 nM | – |
| C[C@]1(O)C[C@H](NC(=O)c2cnc3cc(OC(F)F)c(Cl)cc3c2)C1 [Example 137, 6-Chloro-7-(difluoromethoxy)-N-((1r,3r)-3-hydroxy-3-methylcyclobutyl)quinoline-3-carboxamide] | 10 to 79.4 nM | – |
| O=C(N[C@H]1CCCNC1=O)c1cnc2cc(C3CC3)c(Cl)cc2c1 [Example 36, (S)-6-Chloro-7-cyclopropyl-N-(2-oxopiperidin-3-yl)quinoline-3-carboxamide hydrochloride] | 10 to 79.4 nM | 15.8 nM |
| CC(C)(O)[C@H]1CC[C@H](NC(=O)c2cnc3cc(C4CCC4)c(Cl)cc3c2)CC1 [Example 179, 6-Chloro-7-cyclobutyl-N-(trans-4-(2-hydroxypropan-yl)cyclohexyl)quinoline-3-carboxamide] | < 10 nM | – |
| COc1cccc2cc(C(=O)N[C@H]3CC[C@H](C(C)(C)O)CC3)cnc12 [Example 189, N-(trans-4-(2-Hydroxypropan-2-yl)cyclohexyl)-8-methoxyquinoline-3-carboxamide] | 100 to 1000 nM | – |
| CO[C@H]1CC[C@H](NC(=O)c2cnc3cc(OC(F)F)c(F)cc3c2)CC1 [Example 55, 7-(Difluoromethoxy)-6-fluoro-N-(trans-4-methoxycyclohexyl)quinoline-3-carboxamide] | 10 to 79.4 nM | – |
| O=C(N[C@H]1C[C@H](O)C1)c1cnc2cc(OC(F)F)c(Cl)cc2c1 [Example 140, 6-Chloro-7-(difluoromethoxy)-N-(trans-3-hydroxycyclobutyl)quinoline-3-carboxamide] | 10 to 79.4 nM | – |
| Cc1c(OC(F)F)c(Cl)cc2cc(C(=O)N[C@H]3CC[C@H](C(C)(C)O)CC3)cnc12 [Example 229, 6-Chloro-7-(difluoromethoxy)-N-((trans)-4-(2-hydroxypropan-2-yl)cyclohexyl)-8-methylquinoline-3-carboxamide] | 10 to 79.4 nM | – |
| O=C(N[C@H]1C[C@](O)(C(F)(F)F)C1)c1cnc2cc(OC(F)F)c(Cl)cc2c1 [Example 232, 6-Chloro-7-(difluoromethoxy)-N-((1s,3s)-3-hydroxy-3-(trifluoromethyl)cyclobutyl)quinoline-3-carboxamide] | < 10 nM | – |
| C[C@]1(O)C[C@@H](NC(=O)c2cnc3cc(OC(F)F)c(Br)cc3c2)C1 [Example 157, 6-Bromo-7-(difluoromethoxy)-N-((1s,3s)-3-hydroxy-3-methylcyclobutyl)quinoline-3-carboxamide] | 10 to 79.4 nM | – |
| C[C@H](N[C@H]1C[C@H](NC(=O)c2cnc3cc(OC(F)F)c(F)cc3c2)C1)C(F)F [Example 73, 7-(Difluoromethoxy)-N-(trans-3-(((S)-1,1-difluoropropan-2-yl)amino)cyclobutyl)-6-fluoroquinoline-3-carboxamide] | 10 to 79.4 nM | – |
| CC(C)(O)[C@H]1CC[C@H](NC(=O)c2cnc3cc(Cl)c(Cl)cc3c2)CC1 [Example 202A, 6,7-Dichloro-N-(trans-4-(2-hydroxypropan-2-VI)cyclohexyl)quinoline-3-carboxamide] | 10 to 79.4 nM | – |
| C[C@]1(O)CC[C@H](NC(=O)c2cnc3cc(OC(F)F)c(Cl)cc3c2)CC1 [Example 143, 6-Chloro-7-(difluoromethoxy)-N-((1r,4r)-4-hydroxy-4-methylcyclohexyl)quinoline-3-carboxamide] | < 10 nM | – |
| COc1ccc2cc(C(=O)NC3CCN(c4nnnn4C)CC3)cnc2c1OC [Example 33, 7,8-Dimethoxy-N-(1-(1-methyl-1H-tetrazol-5-yl)piperidin-4-yl)quinoline-3-carboxamide] | 10 to 79.4 nM | – |
| CC(C)(N[C@H]1CC[C@H](NC(=O)c2cnc3cc(OC(F)F)c(F)cc3c2)CC1)C(F)(F)F [Example 66, 7-(Difluoromethoxy)-6-fluoro-N-(trans-4-((1,1-trifluoro-2-methylpropan-2-yl)amino)cyclohexyl)quinoline-3-carboxamide] | < 10 nM | – |
| Cn1nnnc1N1CCC(NC(=O)c2cnc3cc4c(cc3c2)OCCO4)CC1 [Example 111, N-(1-(1-Methyl-1H-tetrazol-5-yl)piperidin-4-yl)-2,3-dihydro-[1,4]dioxino[2,3-q]quinoline-8-carboxamide] | 10 to 79.4 nM | – |
| O=C(N[C@H]1CC[C@](O)(C(F)F)CC1)c1cnc2cc(OC(F)F)c(Cl)cc2c1 [Example 233, 6-Chloro-7-(difluoromethoxy)-N-((1s,4s)-4-(difluoromethyl)-4-hydroxycyclohexyl)quinoline-3-carboxamide] | 10 to 79.4 nM | – |
| O=C(N[C@H]1CC[C@H](N[C@@H](CO)C(F)(F)F)CC1)c1cnc2cc(OC(F)F)c(Cl)cc2c1 [Example 131, 6-Chloro-7-(difluoromethoxy)-N-(trans-4-(((S)-1,1,1-trifluoro-3-hydroxypropan-2-yl)amino)cyclohexyl)quinoline-3-carboxamide] | < 10 nM | – |

| SMILES | IC50 [1] | IC50 (in at least one experimental run, read-out: H-PGDS pIC50 value (converted)) |
| --- | --- | --- |
| CC(C)(O)C(=O)N1CC(NC(=O)c2cnc3cc(OC(F)F)c(Cl)cc3c2)C1 [Example 221, 6-Chloro-7-(difluoromethoxy)-N-(1-(2-hydroxy-2-methylpropanoyl)azetidin-3-yl)quinoline-3-carboxamide] | 100 to 1000 nM | – |
| NS(=O)(=O)O[C@H]1CC[C@H](NC(=O)c2cnc3cc(OC(F)F)c(Cl)cc3c2)CC1 [Example 141, trans-4-(6-Chloro-7-(difluoromethoxy)quinoline-3-carboxamido)cyclohexyl sulfamate] | < 10 nM | – |
| Cn1nnnc1N1CCC(NC(=O)c2cnc3cc(C(F)(F)F)ccc3c2)CC1 [Example 107, N-(1-(1-Methyl-1H-tetrazol-5-yl)piperidin-4-yl)-7-(trifluoromethyl)quinoline-3-carboxamide] | 100 to 1000 nM | – |
| O=C(N[C@H]1CC[C@H](N2CC(F)C2)CC1)c1cnc2cc(OC(F)F)c(F)cc2c1 [Example 90, 7-(Difluoromethoxy)-6-fluoro-N-(trans-4-(3-fluoroazetidin-1-yl)cyclohexyl)quinoline-3-carboxamide] | 10 to 79.4 nM | – |
| C#CCCNC(=O)CO[C@H]1CC[C@H](NC(=O)c2cnc3cc(OC(F)F)c(F)cc3c2)CC1 [Example 103, N-(trans-4-(2-(but-3-yn-1-ylamino)-2-oxoethoxy)cyclohexyl)-7-(difluoromethoxy)-6-fluoroquinoline-3-carboxamide] | 10 to 79.4 nM | – |
| CC(C)(O)[C@H]1CC[C@H](NC(=O)c2cnc3cc(N)c(F)cc3c2)CC1 [Example 173, 7-Amino-6-fluoro-N-(trans-4-(2-hydroxypropan-2-yl)cyclohexyl)quinoline-3-carboxamide] | 100 to 1000 nM | – |
| CC(C)(O)[C@H]1CC[C@H](NC(=O)c2cnc3cc(OC(F)F)c(Br)cc3c2)CC1 [Example 152, 6-Bromo-7-(difluoromethoxy)-N-(trans-4-(2-hydroxypropan-2-yl)cyclohexyl)quinoline-3-carboxamide] | < 10 nM | – |
| CC(C)(O)[C@@H]1CC[C@@H](NC(=O)c2cnc3cc(OC(F)F)c(Cl)cc3c2)CO1 (racemic) [Example 124, Racemic 6-chloro-7-(difluoromethoxy)-N-((3r,6s)-6-(2-hydroxypropan-2-yl)tetrahydro-2H-pyran-3-yl)quinoline-3-carboxamide] | < 10 nM | – |
| CC1CCN1c1cc2ncc(C(=O)N[C@H]3CCNC3=O)cc2cc1F (mixture of isomers) [Example 171, 6-Fluoro-7-(2-methylazetidin-1-yl)-N—((S)-2-oxopyrrolidin-3-yl)quinoline-3-carboxamide] | 10 to 79.4 nM | – |
| Cn1nnnc1N1CCC(NC(=O)c2cnc3cc(C4CC4)c(C#N)cc3c2)CC1 [Example 24, 6-Cyano-7-cyclopropyl-N-(1-(1-methyl-1H-tetrazol-5-yl)piperidin-4-yl)quinoline-3-carboxamide] | 10 to 79.4 nM | – |
| CC(O)(CO[C@H]1CC[C@H](NC(=O)c2cnc3cc(OC(F)F)c(F)cc3c2)CC1)C(F)(F)F (stereo partly drawn) [Example 76, 7-(Difluoromethoxy)-6-fluoro-N-(trans-4-(3,3,3-trifluoro-2-hydroxy-2-methylpropoxy)cyclohexyl)quinoline-3-carboxamide] | 10 to 79.4 nM | – |
| C[C@@H](N[C@H]1CC[C@H](NC(=O)c2cnc3cc(OC(F)F)c(Br)cc3c2)CC1)C(F)F [Example 158, 6-Bromo-7-(difluoromethoxy)-N-(trans-4-(((R)-1,1-difluoropropan-2-yl)amino)cyclohexyl)quinoline-3-carboxamide] | < 10 nM | – |
| CC(C)(O)[C@H]1CC[C@H](NC(=O)c2cnc3cc(SC(F)F)c(F)cc3c2)CC1 [Example 184, 7-((Difluoromethyl)thio)-6-fluoro-N-(trans-4-(2-hydroxypropan-2-yl)cyclohexyl)quinoline-3-carboxamide] | 10 to 79.4 nM | – |
| CCc1ccc2cc(C(=O)NC3CCN(c4nnnn4C)CC3)cnc2c1 [Example 110, 7-Ethyl-N-(1-(1-methyl-1H-tetrazol-5-yl)piperidin-4-yl)quinoline-3-carboxamide] | 10 to 79.4 nM | – |
| Cc1cc(NC(=O)c2cnc3cc(OC(F)F)ccc3c2)[nH]n1 [Example 8, 7-(Difluoromethoxy)-N-(3-methyl-1H-pyrazol-5-yl)quinoline-3-carboxamide] | 10 to 79.4 nM | – |
| CNc1cc2ncc(C(=O)N[C@H]3CC[C@H](C(C)(C)O)CC3)cc2cc1Cl [Example 209] | < 10 nM | – |
| CC(C)(F)c1cc2ncc(C(=O)N[C@H]3CC[C@H](C(C)(C)O)CC3)cc2cc1Cl [Example 230, 6-Chloro-7-(2-fluoropropan-2-yl)-N-((trans)-4-(2-hydroxypropan-2-yl)cyclohexyl)quinoline-3-carboxamide] | < 10 nM | – |
